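Following 48 hours of exposure in 96-well plates, responses at five concentrations were used to interpolate endpoints linearly. Abbreviation: GI50, concentration required for 50% inhibition of growth. TGI: total growth inhibition.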
Experiments:
Assay in all cases: NCI-60 cell line screen, 48 h
[1] = test system: HL-60(TB) leukemia
[2] = test system: SW-620 colon
[3] = test system: A498 renal
[4] = test system: OVCAR-8 ovarian
[5] = test system: SR leukemia
[6] = test system: SNB-19 CNS
[7] = test system: RPMI-8226 leukemia
[8] = test system: HOP-92 NSCLC
[9] = test system: SK-MEL-5 melanoma
[10] = test system: EKVX NSCLC

SMILES	GI50 [1]	TGI [1]	GI50 [2]	TGI [2]	GI50 [3]	TGI [3]	GI50 [4]	TGI [4]	GI50 [5]	TGI [5]	GI50 [6]	TGI [6]	GI50 [7]	TGI [7]	GI50 [8]	TGI [8]	GI50 [9]	TGI [9]	GI50 [10]	TGI [10]
CN1CCN(Cc2ccc(NC(=O)c3cncc(C#Cc4cnc(N)c5ccccc45)c3)cc2C(F)(F)F)CC1	0.165 µM	0.665 µM	0.125 µM	0.421 µM	0.299 µM	1.14 µM	0.473 µM	1.46 µM	0.157 µM	6.63 µM	0.563 µM	1.22 µM	0.441 µM	1.41 µM	0.401 µM	1.25 µM	0.537 µM	0.994 µM	0.413 µM	0.974 µM
CC1=C[C@@H]2Cc3occc3C(C)(C)[C@@H]2CC1	–	39.1 µM	–	31.8 µM	–	49.6 µM	–	37.5 µM	–	32.7 µM	–	> 10 µM	–	–	–	38.9 µM	–	33.1 µM	–	33 µM
C[C@@H]1Cc2c([nH]c3ccccc23)[C@@H](c2c(F)cc(/C=C/C(=O)O)cc2F)N1CC(C)(C)F	15.8 µM	39.4 µM	12.5 µM	29 µM	8.77 µM	23.7 µM	11.9 µM	38.4 µM	15.9 µM	48.4 µM	13.7 µM	32.3 µM	8.1 µM	37.6 µM	15 µM	30.8 µM	10.7 µM	24.4 µM	12.7 µM	39.2 µM
CC1(C)N=C(N)N=C(N)N1c1ccc(CCCCc2ccc(S(=O)(=O)F)cc2Cl)c(Cl)c1	–	11.6 µM	–	360 µM	–	261 µM	–	261 µM	–	> 500 µM	–	125 µM	–	–	–	48.6 µM	–	31.7 µM	–	161 µM
CCOc1ccc2nc(NC(=O)/C(CC(=O)CC(C3=C(O)c4ccccc4CC3=O)c3ccccc3)=N\O)sc2c1 (stereo unspecified)	–	> 100 µM	–	> 100 µM	–	> 100 µM	–	> 100 µM	–	> 100 µM	–	> 100 µM	–	> 100 µM	–	> 100 µM	–	> 100 µM	–	> 100 µM
CC1=C2[C@@H](CC1)[C@]1(C)O[C@@](C(C)C)(C[C@H]1OC(=O)[C@H](C)O)[C@H]2OC(=O)/C=C/c1ccccc1	13.5 µM	39.5 µM	16.4 µM	33.9 µM	0.236 µM	0.702 µM	0.451 µM	16.6 µM	10.3 µM	37.5 µM	17.1 µM	37.2 µM	7.9 µM	30.8 µM	5.95 µM	19.4 µM	13.6 µM	26.7 µM	6.19 µM	21.7 µM
CN(C)CCNC(=O)c1cccc2nc3c(Cl)cccc3nc12	–	> 100 µM	–	> 40.4 µM	–	16.9 µM	–	> 44.3 µM	–	> 100 µM	–	57 µM	–	82.6 µM	–	> 24.2 µM	–	> 42.3 µM	–	32.9 µM
CN=C1NC(=O)/C(=C/c2ccc3ncccc3c2)S1	8.73 µM	> 25 µM	8.41 µM	> 25 µM	3.86 µM	13.7 µM	7.73 µM	> 25 µM	2.14 µM	16.7 µM	9.5 µM	> 25 µM	12.1 µM	> 25 µM	8.03 µM	> 25 µM	7.44 µM	> 20.1 µM	–	–
